Results as given in PMC8019567 (Parasite, 2021).
Converted amounts (≈) assume the structure as drawn. Where two headings read alike, the source gives them in different places.

How the values were obtained:
ear mites = test system: ear mites; parameters: method as in PMID 29887026; conditions: off-label in cats, 2.5 mg/kg; cited from earlier work
[1] = Study #1: single-dose pharmacokinetics and non-interference in cats (plasma, LC-MS/MS); conditions: NexGard Combo single topical at minimum recommended dose
Description: (§1) All topical treatments were applied on one spot directly on the skin, after parting the hair, in the midline of the neck between the base of the skull and the shoulder blades. The intra-venous injection was given in the cephalic vein.
(§2) All blood samples were collected into lithium heparin tubes and processed into plasma by centrifugation.
(§3) This study was designed to evaluate the main pharmacokinetic parameters (Cmax, Tmax, Clast, Tlast, half-life, AUC, bioavailability) of the three compounds administered topically once in the novel formulation at the recommended minimum dose, and the non-interference of the three compounds between each other.
(§4) Group 2 was treated topically with esafoxolaner alone, formulated with identical solvents/excipients as those of the novel formulation, for non-interference evaluation of esafoxolaner. […] Group 4 was treated intravenously with esafoxolaner for bioavailability calculation of topical esafoxolaner in the novel formulation.
(§5) The cat plasma samples and internal standards were subjected to semi-automated solid phase extraction in a 96-well plate format followed by reversed-phase HPLC with gradient elution. The extracted analytes were quantified by an AB Sciex API 5000 mass spectrometer system using an electrospray interface. […] Chromatograms were integrated by the Analyst® 1.6.2 software and peak areas were determined.
(§6) The validated lower and upper limits of quantitation were 0.2 and 100 ng/mL, respectively. Sample concentrations were determined based on a fortified matrix calibration curve ranging from 0.2 to 100 ng/mL for each analyte with quality control samples, control plasma samples, and acceptance criteria according to EMA and FDA guidelines [4, 7]. Repeatability (precision), accuracy, assay specificity, dilution, recovery and matrix effect, carryover, stability in plasma and all solutions was established.
(§7) Pharmacokinetic (PK) parameters were calculated from individual plasma concentrations using the non-compartmental analysis function of WinNonlin® software (Phoenix 64 Build, version 6.3). The non-compartmental approach was consistent with the extravascular (topical) or IV bolus route of administration.
(§8) The peak drug plasma concentration Cmax and the time from dosing to the maximum concentration values Tmax were obtained directly from plasma concentration versus time data for each cat and then averaged for each topical treatment group. The terminal elimination phase was determined using at least the final three observed concentrations and not including Cmax. The first order rate constant, λz, associated with the terminal log-linear portion of the curve was estimated via linear regression of the log plasma concentration versus time curve. The terminal plasma half-life using ln (2)/λz was calculated for each animal, and then averaged for each treatment group. The area under the concentration versus time curve (AUC) from the time of dosing to the time to the last quantifiable concentration (AUC0−Tlast) was calculated using the linear up, log down trapezoidal method, and extrapolated to infinity (AUC0−inf) using the formula AUC0−Tlast + Clast/λz.
(§9) The systemic clearance of esafoxolaner in plasma (Cls) defined as dose/AUC0−inf, and the volume of distribution at steady state (Vss), which is AUMC0−inf/AUC0−inf × Cls, was calculated from WinNonlin® for the IV esafoxolaner group only. Due to the long terminal plasma half-life of esafoxolaner, each cat was not used as its own control and bioavailability was calculated on the average.

[2] = Study #2: multiple-dose kinetics, accumulation and time to steady state (five topical doses at 28-day intervals); assay type: in vivo; conditions: repeated topical NexGard Combo at minimum recommended dose at 4-week intervals; cats
Description: Group 4, the accumulation and time to steady state group, was treated five times at 28-day intervals, topically with NexGard® Combo at the minimum recommended dose. In this group, blood samples were collected prior to each treatment, during the 4 weeks following each treatment, and for 8 weeks after the last treatment, as detailed in Table 1.
Chromatograms were integrated by the Analyst® 1.6.2 software and peak areas were determined.
The validated lower and upper limits of quantitation were 0.2 and 100 ng/mL, respectively. Sample concentrations were determined based on a fortified matrix calibration curve ranging from 0.2 to 100 ng/mL for each analyte with quality control samples, control plasma samples, and acceptance criteria according to EMA and FDA guidelines.
Accumulation ratios were calculated using Cmax and AUC for the three active ingredients after the 1st and 5th dose following five topical doses of the novel formulation.

[3] = parameters: method as in PMID 24703069; conditions: topical Broadline; cats; cited from earlier work
[4] = Study #2: dose proportionality/linearity after a single topical dose of NexGard Combo at 0.5x, 1x, 2x; assay type: in vivo, cats
Description: Blood samples were collected prior to treatment and over a period of 91 days after the treatment, as detailed in Table 1. […] Dose proportionality for the three active ingredients was assessed by calculating the linear relationship between AUC or Cmax and the dose using the simple linear regression model.

[5] = in vivo
Description: as §1, §2, §3, §4, §5, §6, §7, §8, §9

in vivo = conditions: topical or ocular, 10 mg/kg
Description: as §1, §2, §3, §4, §5, §6, §7, §8, §9

C. felis = test system: C. felis; parameters: method as in internal Sponsor’s data; conditions: plasma level, ref internal Sponsor’s data; cited from earlier work
[6] = first (pilot) study; topical esafoxolaner only, twice at a 28-day interval, 23× the maximum exposure dose; cats; cited from earlier work
[7] = test system: ticks (Ixodes scapularis); parameters: method as in internal Sponsor’s data; conditions: plasma level, ref internal Sponsor’s data; cited from earlier work
[8] = 0.5× group compared to 1× group
[9] = NexGard Combo single topical 0.5× (esafoxolaner 0.72, praziquantel 5, eprinomectin 0.25 mg/kg), cats, mean
[10] = NexGard Combo single topical 1× (esafoxolaner 1.44, praziquantel 10, eprinomectin 0.5 mg/kg), cats, mean
[11] = NexGard Combo single topical 2× (esafoxolaner 2.88, praziquantel 20, eprinomectin 1 mg/kg), cats, mean

O=C(CNC(=O)c1ccc(C2=NOC(c3cc(Cl)cc(C(F)(F)F)c3)(C(F)(F)F)C2)c2ccccc12)NCC(F)(F)F (stereo not drawn) [afoxolaner]
acaricidal efficacy against ear mites (ear mites): efficacious

eprinomectin
mean Tmax [1]: 35 h
time to concentrations below the limit of quantitation, on average ([1]; LLOQ 0.2 ng/mL): 28 days
dose by which steady state was reached [2]: fifth and five
bioavailability in the Broadline formulation [3]: 31%
AUC0−Tlast Ratio [4, 8]: 0.5
Cmax Ratio [4, 8]: 0.4
dose proportionality of PK parameters ([4]; 0.5× to 2× the minimum dose (esafoxolaner 0.72–2.88, praziquantel 5–20, eprinomectin 0.25–1.0 mg/kg), single topical NexGard Combo): dose-proportional
AUC0−Tlast Ratio ([4]; 2× group compared to 1× group): 2.4
Cmax Ratio ([4]; 2× group compared to 1× group): 2.3
AUC0−Tlast [4, 9]: 53.6 ± 19.9 ng·days/mL
Cmax [4, 9]: 9.44 ± 4.26 ng/mL
AUC0−Tlast [4, 10]: 97.8 ± 37.4 ng·days/mL
Cmax [4, 10]: 24.1 ± 20.8 ng/mL
AUC0−Tlast [4, 11]: 233 ± 133 ng·days/mL
Cmax [4, 11]: 54.3 ± 35.8 ng/mL

O=C(C1CCCCC1)N1CC(=O)N2CCc3ccccc3C2C1 (stereo not drawn) [Praziquantel, praziquantel]
time at which maximum concentrations were reached (range) ([5]; cat): 4 to 8 h
time of last quantifiable plasma concentrations (range) ([5]; cat): 7 to 42 days
Cmax (in vivo): 107 ± 59 ng/mL
Tmax (in vivo): 7.01 h
half-life (in vivo): 103 h
bioavailability in the Broadline formulation [3]: 45%
Cmax ([4]; in vivo, topical or ocular, 5 mg/kg): 54.7 ± 28.8 ng/mL
Cmax ([4]; in vivo, topical or ocular, 10 mg/kg): 126 ± 87.2 ng/mL
Cmax ([4]; in vivo, topical or ocular, 20 mg/kg): 317 ± 209 ng/mL

O=C(CNC(=O)c1ccc(C2=NO[C@@](c3cc(Cl)cc(C(F)(F)F)c3)(C(F)(F)F)C2)c2ccccc12)NCC(F)(F)F [Esafoxolaner, esafoxolaner]
Vss (volume of distribution) [5]: 4.0 L/kg
absolute (topical) bioavailability [5]: 47.2%
time until which efficacious plasma levels (EC90) were maintained, from 24 h [5]: 6-8 weeks
AUC0−Tlast ([5]; iv, 1.44 mg/kg): 9586 ± 1985 ng·days/mL
AUC0−inf ([5]; iv, 1.44 mg/kg): 10,542 ± 2029 day × ng/mL
Cl (systemic clearance) ([5]; iv, 1.44 mg/kg): 5.87 ± 1.23 mL/h/kg
T1/2 (plasma half-life) ([5]; iv, 1.44 mg/kg): 504 ± 101 h
Vss (volume of distribution at steady-state) ([5]; iv, 1.44 mg/kg): 4.016 ± 1.19 L/kg
half-life, range of individuals ([5]; iv, 1.44 mg/kg): 355 to 631 h
AUC0−Tlast ([5]; topical or ocular, 1.44 mg/kg): 6368 ± 1665 ng·days/mL
AUC0−inf ([5]; topical or ocular, 1.44 mg/kg): 7181 ± 2250 ng·days/mL
Cmax ([5]; topical or ocular, 1.44 mg/kg): 218 ± 68 ng/mL
T1/2 (plasma half-life) ([5]; topical or ocular, 1.44 mg/kg): 499 ± 154 h
Tmax ([5]; topical or ocular, 1.44 mg/kg): 90 ± 74.4 h
individual plasma half-lives (range) ([5]; topical or ocular, 1.44 mg/kg): 19.4 to 27.8 days
EC90 (C. felis): 0.0191 ± 0.0021 µg/mL (≈ 0.0305 µM)
adverse reactions [6]: no significant adverse reactions
dose proportionality of PK parameters ([4]; in vivo): dose-proportional
persistence of a quantifiable plasma concentration ([4]; in vivo): more than 13 weeks
EC90 [7]: 0.0431 µg/mL (≈ 0.0689 µM)
